Measurements reported in DBAASP.
Converted amounts (≈) assume the structure as drawn. “And” between values parts separate entries of the source, which are not always exact repeats. Equal entries are not always repeated.

Experiments:
Assay in all cases: ≥ marks a high value that may be exact or a test limit, other limits are often not marked, values filed in µg/mL are converted to µM
[1] = system: Salmonella enterica subsp. enterica serovar Pullorum C79-13
Escherichia coli UB1005 = system: Escherichia coli UB1005
Acinetobacter baumannii = system: Acinetobacter baumannii
[2] = system: Salmonella enterica subsp. enterica serovar Typhimurium C77-31
Escherichia coli K88 = system: Escherichia coli K88
[3] = system: Escherichia coli ATCC 25922
[4] = system: Pseudomonas aeruginosa CICC 21625
Pseudomonas aeruginosa = system: Pseudomonas aeruginosa
[5] = system: Pseudomonas aeruginosa ATCC 27853
[6] = system: Salmonella enterica subsp. enterica serovar Typhimurium ATCC 14028
[7] = system: Pseudomonas aeruginosa CICC 21630
Escherichia coli K99 = system: Escherichia coli K99
Escherichia coli = system: Escherichia coli
Klebsiella pneumoniae = system: Klebsiella pneumoniae
[8] = system: Pseudomonas aeruginosa PAO1
[9] = system: Klebsiella pneumoniae subsp. pneumoniae CGMCC 1.176
[10] = system: Enterobacter cloacae CGMCC 1.58
[11] = system: Staphylococcus aureus AS1.72
[12] = system: Lactococcus lactis AS1.1690
Bacillus cereus AS1.126 = system: Bacillus cereus AS1.126
[13] = system: Klebsiella aerogenes CGMCC 1.876
Escherichia coli AS1.349 = system: Escherichia coli AS1.349
[14] = system: Enterococcus faecium CGMCC 1.2334
[15] = system: Enterococcus faecalis CGMCC 1.595
[16] = system: Pseudomonas aeruginosa CGMCC 1.860
Listeria monocytogenes = system: Listeria monocytogenes
Salmonella typhimurium = system: Salmonella typhimurium
Bacillus megaterium = system: Bacillus megaterium
Saccharomyces cerevisiae = system: Saccharomyces cerevisiae
Enterobacter cloacae = system: Enterobacter cloacae
Vibrio cholerae = system: Vibrio cholerae
[17] = system: Salmonella enterica subsp. enterica serovar Enteritidis
Escherichia coli B = system: Escherichia coli B
Streptococcus pneumoniae = system: Streptococcus pneumoniae
Candida albicans = system: Candida albicans
Clostridium perfringens = system: Clostridium perfringens
Staphylococcus aureus = system: Staphylococcus aureus
[18] = system: Staphylococcus haemolyticus
Aerococcus viridans = system: Aerococcus viridans
[19] = system: Staphylococcus aureus ATCC 25923
Pseudomonas aeruginosa 2 = system: Pseudomonas aeruginosa 2
Pseudomonas aeruginosa 1 = system: Pseudomonas aeruginosa 1

## CC[C@H](C)[C@H](N)C(=O)N[C@@H](CCCN=C(N)N)C(=O)N1CCC[C@H]1C(=O)N[C@H](C(=O)N[C@H](C(=O)N[C@@H](CCCN=C(N)N)C(=O)N1CCC[C@H]1C(=O)N[C@H](C(=O)N[C@H](C(=O)N[C@@H](CCCN=C(N)N)C(=O)N1CCC[C@H]1C(=O)N[C@H](C(=O)N[C@H](C(=O)N[C@@H](CCCN=C(N)N)C(=O)N1CCC[C@H]1C(=O)N[C@H](C(N)=O)[C@@H](C)CC)[C@@H](C)CC)[C@@H](C)CC)[C@@H](C)CC)[C@@H](C)CC)[C@@H](C)CC)[C@@H](C)CC [IRPIIRPIIRPIIRPI]
[1]
  MIC: 16 µM (≈ 31 µg/mL)
Escherichia coli UB1005
  MIC: 16 µM (≈ 31 µg/mL)
Acinetobacter baumannii
  MIC: 8 µM (≈ 15.5 µg/mL)
[2]
  MIC: 16 µM (≈ 31 µg/mL)
Escherichia coli K88
  MIC: 4 µM (≈ 7.74 µg/mL)
[3]
  MIC: 16 µM (≈ 31 µg/mL)
[4]
  MIC: ≥ 64 µM
Pseudomonas aeruginosa
  MIC: > 64 µM
[5]
  MIC: > 64 µM
[6]
  MIC: 16 µM (≈ 31 µg/mL)
[7]
  MIC: ≥ 64 µM
Escherichia coli K99
  MIC: 8 µM (≈ 15.5 µg/mL)
Escherichia coli
  MIC: 16 µM (≈ 31 µg/mL)
Klebsiella pneumoniae
  MIC: 32 µM (≈ 61.9 µg/mL)
[8]
  MIC: > 64 µM

## NC(N)=NCCC[C@H](NC(=O)[C@H](Cc1cnc[nH]1)NC(=O)[C@H](Cc1c[nH]c2ccccc12)NC(=O)[C@H](Cc1ccccc1)NC(=O)[C@H](CCCN=C(N)N)NC(=O)[C@H](CCCN=C(N)N)NC(=O)[C@H](Cc1c[nH]c2ccccc12)NC(=O)[C@@H](N)Cc1cnc[nH]1)C(=O)O [HWRRFWHR]
[9]
  MIC: ≥ 100 µM
[10]
  MIC: ≥ 100 µM
[11]
  MIC: 12.5 µM (≈ 16 µg/mL)
[12]
  MIC: 25 µM (≈ 32 µg/mL)
Bacillus cereus AS1.126
  MIC: 3.13 µM (≈ 4.01 µg/mL)
[13]
  MIC: ≥ 100 µM
Escherichia coli AS1.349
  MIC: 12.5 µM (≈ 16 µg/mL)
[14]
  MIC: 12.5 µM (≈ 16 µg/mL)
[15]
  MIC: 12.5 µM (≈ 16 µg/mL)
[16]
  MIC: 12.5 µM (≈ 16 µg/mL)

## CC[C@H](C)[C@H](NC(=O)[C@H](CC(C)C)NC(=O)[C@H](CO)NC(=O)[C@@H](NC(=O)[C@@H](NC(=O)[C@H](CC(C)C)NC(=O)CN)C(C)C)[C@@H](C)O)C(=O)N[C@@H](CCCCN)C(=O)NCC(=O)N[C@@H](C)C(=O)NCC(=O)N[C@@H](CCCCN)C(=O)N[C@@H](CC(C)C)C(=O)N[C@@H](CC(C)C)C(=O)NCC(=O)NCC(=O)N[C@@H](CC(C)C)C(=O)N[C@@H](Cc1ccccc1)C(=O)NCC(=O)N[C@@H](CO)C(=O)N[C@H](C(=O)N[C@H](C(=O)NCC(=O)NCC(=O)N[C@@H](CCC(N)=O)C(=O)N[C@@H](CO)C(=O)O)[C@@H](C)O)C(C)C [GLVTSLIKGAGKLLGGLFGSVTGGQS]
Listeria monocytogenes
  MIC: 25 µM (≈ 60.4 µg/mL)
Salmonella typhimurium
  MIC: 3.1 µM (≈ 7.5 µg/mL)
Bacillus megaterium
  MIC: 25 µM (≈ 60.4 µg/mL)
Saccharomyces cerevisiae
  MIC: ≥ 50 µM
Enterobacter cloacae
  MIC: 12.5 µM (≈ 30.2 µg/mL)
Vibrio cholerae
  MIC: 25 µM (≈ 60.4 µg/mL)
[17]
  MIC: 3.1 µM (≈ 7.5 µg/mL)
Escherichia coli B
  MIC: 6.25 µM (≈ 15.1 µg/mL)
Streptococcus pneumoniae
  MIC: 6.25 µM (≈ 15.1 µg/mL)
Candida albicans
  MIC: 50 µM (≈ 121 µg/mL)
Pseudomonas aeruginosa
  MIC: 3.1 µM (≈ 7.5 µg/mL)
Clostridium perfringens
  MIC: ≥ 50 µM
Staphylococcus aureus
  MIC: 6.25 µM (≈ 15.1 µg/mL)
[18]
  MIC: ≥ 50 µM
Aerococcus viridans
  MIC: 3.1 µM (≈ 7.5 µg/mL)
Klebsiella pneumoniae
  MIC: 6.25 µM (≈ 15.1 µg/mL)

## CC[C@H](C)[C@H](NC(=O)CN)C(=O)NCC(=O)N[C@@H](C)C(=O)N[C@H](C(=O)N[C@@H](CC(C)C)C(=O)N[C@@H](CCCCN)C(=O)N[C@@H](Cc1c[nH]c2ccccc12)C(=O)N[C@@H](CC(C)C)C(=O)N1CCC[C@H]1C(=O)N[C@@H](C)C(=O)N[C@@H](CC(C)C)C(=O)N[C@H](C(=O)N[C@@H](CCCCN)C(=O)N[C@@H](CCCN=C(N)N)C(=O)N[C@@H](CCCCN)C(=O)N[C@@H](CCCN=C(N)N)C(=O)N[C@@H](CCC(N)=O)C(=O)N[C@@H](CCC(N)=O)C(=O)O)[C@@H](C)CC)C(C)C [GIGAVLKWLPALIKRKRQQ]
[19]
  MIC: 0.0575 µM (≈ 0.125 µg/mL)
Pseudomonas aeruginosa 2
  MIC: 4.6 µM (≈ 10 µg/mL)
Pseudomonas aeruginosa 1
  MIC: 1.15 µM (≈ 2.5 µg/mL)
[3]
  MIC: 0.575 µM (≈ 1.25 µg/mL)
[5]
  MIC: 2.3 µM (≈ 5 µg/mL)
Staphylococcus aureus
  MIC: 0.115 µM and 0.163 µM
Escherichia coli
  MIC: 0.405 µM (≈ 0.88 µg/mL)
